Values quoted from earlier work, collected in patent US12295729B2, “Apparatus and method for delivery of antimicrobial during a transdermal sampling and delivery process” (Georgetown University, priority 2015, dated 2025).

Key:
[1] = tested on: Achromobacter xylosoxidans
[2] = tested on: Prevotella melaninogenica
[3] = tested on: Porphyromonas circumdentaria
[4] = tested on: Aggregatibacter actinomycetemcomitans
[5] = tested on: Burkholderia thailandensis
[6] = tested on: Burkholderia pseudomallei
[7] = tested on: Stenotrophomonas maltophilia

Measured: bacteria killing ability

LL-37 (LLGDFFRKSKEKIGKEFKRIVQRIKDFLRNLVPRTES; Antibacterial peptide LL-37; UniProt P49913 134-170, looked up) [antimicrobial peptide; the factotum human cathelicidin peptide]
kill: [1] | Klebsiella pneumonia | Lactobacillus casei | Acinetobacter baumannii | Burkholderia cepacia | Prevotella loescheii | Streptococcus pneumonia | Bacillus anthracis | Francisella novicida | Porphyromonas gingivalis | Staphylococcus aureus | Enterococcus faecalis | Brucella suis | Helicobacter pylori | Mannheimia haemolytica | Borrelia spp. | [2] | Prevotella intermedia | Micrococcus luteus | Tannerella forsythia | [3] | Propionibacterium acnes | Listeria monocytogenes | Group A streptococcus | Mycobacterium bovis | Salmonella sp. | Fusobacterium nucleatum | Treponema pallidum | [4] | [5] | Shigella sp. | Pseudomonas aeruginosa | Group B Streptococcus | [6] | Treponema denticola | Leptospira interrogans | Capnocytophaga spp. | Mycobacterium smegmatis | Escherichia coli | Streptococcus mutans | Yersinia pestis | [7] | Pasteurella multocida | Nocardia sp. | Haemophilus influenza
